Experimental data as given in ChEMBL document CHEMBL1145733, “N-isonicotinoyl-(L)-4-aminophenylalanine derivatives as tight binding VLA-4 antagonists” (Bioorg Med Chem Lett, 2003).

Columns and labels:
[1] = target: T1, Integrin alpha-4/beta-1 (Homo sapiens, UniProt P05556+P13612); experiment: Inhibition of VLA-4 binding in Jurkat cells in the presence of Mg2+; format: cell-based
[2] = target: T1, Integrin alpha-4/beta-1; experiment: Inhibition of [125I]VCAM-Ig binding to VLA-4 of Jurkat cells in the presence of Mn2+; format: cell-based
[3] = target: T1, Integrin alpha-4/beta-1; experiment: Dissociation from Very late antigen 4 (VLA-4); format: protein-complex assay
[4] = target: T1, Integrin alpha-4/beta-1; experiment: Inhibition of [125I]VCAM-Ig binding to VLA-4 of Jurkat cells in the presence of [Ca2+]; format: cell-based
[5] = system: Canis familiaris; experiment: Unbound plasma was determined in Beagle dog at a dose of 1 mg/kg by iv administration; format: ADME, organism-based, Canis lupus familiaris; parameters: dose 1 mg/kg, route intravenous; details: in vivo
[6] = Half life period was determined in Sprague-Dawley rats at a dose of 1 mg/kg by iv administration; format: ADME, organism-based; parameters: dose 1 mg/kg, route intravenous; details: rat, in vivo
[7] = Oral bioavailability in Sprague-Dawley rats at a dose of 2 mg/kg by po administration; format: ADME, organism-based; details: rat, in vivo
[8] = system: Rattus norvegicus; experiment: Unbound plasma was determined in Sprague-Dawley rats at a dose of 1 mg/kg by iv administration; format: ADME, organism-based; parameters: dose 1 mg/kg, route intravenous; details: in vivo
[9] = Oral bioavailability in Beagle dog at a dose of 2 mg/kg by po administration; format: ADME, organism-based, Canis lupus familiaris; details: in vivo
[10] = Unbound plasma was determined in rhesus monkey at a dose of 1 mg/kg by iv administration; format: ADME, organism-based; parameters: dose 1 mg/kg, route intravenous; details: cercopithecidae, in vivo
[11] = Oral bioavailability in rhesus monkey at a dose of 2 mg/kg by po administration; format: ADME, organism-based, Macaca mulatta; details: in vivo
[12] = Plasma clearance was determined in Beagle dog at a dose of 1 mg/kg by iv administration; format: ADME, organism-based, Canis lupus familiaris; parameters: dose 1 mg/kg, route intravenous; details: read-out: Clp
[13] = Half life period was determined in rhesus monkey at a dose of 1 mg/kg by iv administration; format: ADME, organism-based; parameters: dose 1 mg/kg, route intravenous; details: cercopithecidae, in vivo
[14] = Half life period was determined in Beagle dog at a dose of 1 mg/kg by iv administration; format: ADME, organism-based, Canis lupus familiaris; parameters: dose 1 mg/kg, route intravenous; details: in vivo
[15] = Plasma clearance was determined in rhesus monkey at a dose of 1 mg/kg by iv administration; format: ADME, organism-based; parameters: dose 1 mg/kg, route intravenous; details: cercopithecidae, read-out: Clp
[16] = Plasma clearance was determined in Sprague-Dawley rats at a dose of 1 mg/kg by iv administration; format: ADME, organism-based; parameters: dose 1 mg/kg, route intravenous; details: rat, read-out: Clp

T1 sequence (P05556 whole entry): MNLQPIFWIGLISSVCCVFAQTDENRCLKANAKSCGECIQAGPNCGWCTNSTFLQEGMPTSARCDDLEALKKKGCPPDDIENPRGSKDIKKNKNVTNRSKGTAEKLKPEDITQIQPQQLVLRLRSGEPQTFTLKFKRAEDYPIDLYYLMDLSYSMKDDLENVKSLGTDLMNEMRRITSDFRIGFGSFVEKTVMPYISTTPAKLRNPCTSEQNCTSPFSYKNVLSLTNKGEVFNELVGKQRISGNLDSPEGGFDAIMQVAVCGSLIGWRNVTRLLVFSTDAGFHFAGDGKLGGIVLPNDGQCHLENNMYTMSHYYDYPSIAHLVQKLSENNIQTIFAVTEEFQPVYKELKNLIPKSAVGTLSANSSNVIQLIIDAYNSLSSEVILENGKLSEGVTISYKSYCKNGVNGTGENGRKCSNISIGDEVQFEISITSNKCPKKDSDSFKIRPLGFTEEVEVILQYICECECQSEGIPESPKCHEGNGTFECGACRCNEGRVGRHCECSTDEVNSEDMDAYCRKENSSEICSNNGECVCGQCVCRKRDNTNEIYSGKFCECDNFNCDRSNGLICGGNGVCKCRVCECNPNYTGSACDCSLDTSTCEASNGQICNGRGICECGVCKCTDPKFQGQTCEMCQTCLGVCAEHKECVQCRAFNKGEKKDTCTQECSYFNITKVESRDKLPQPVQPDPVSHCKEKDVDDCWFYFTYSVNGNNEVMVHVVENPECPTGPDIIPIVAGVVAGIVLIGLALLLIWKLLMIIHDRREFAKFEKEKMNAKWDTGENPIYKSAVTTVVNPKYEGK
T1 sequence (P13612 whole entry): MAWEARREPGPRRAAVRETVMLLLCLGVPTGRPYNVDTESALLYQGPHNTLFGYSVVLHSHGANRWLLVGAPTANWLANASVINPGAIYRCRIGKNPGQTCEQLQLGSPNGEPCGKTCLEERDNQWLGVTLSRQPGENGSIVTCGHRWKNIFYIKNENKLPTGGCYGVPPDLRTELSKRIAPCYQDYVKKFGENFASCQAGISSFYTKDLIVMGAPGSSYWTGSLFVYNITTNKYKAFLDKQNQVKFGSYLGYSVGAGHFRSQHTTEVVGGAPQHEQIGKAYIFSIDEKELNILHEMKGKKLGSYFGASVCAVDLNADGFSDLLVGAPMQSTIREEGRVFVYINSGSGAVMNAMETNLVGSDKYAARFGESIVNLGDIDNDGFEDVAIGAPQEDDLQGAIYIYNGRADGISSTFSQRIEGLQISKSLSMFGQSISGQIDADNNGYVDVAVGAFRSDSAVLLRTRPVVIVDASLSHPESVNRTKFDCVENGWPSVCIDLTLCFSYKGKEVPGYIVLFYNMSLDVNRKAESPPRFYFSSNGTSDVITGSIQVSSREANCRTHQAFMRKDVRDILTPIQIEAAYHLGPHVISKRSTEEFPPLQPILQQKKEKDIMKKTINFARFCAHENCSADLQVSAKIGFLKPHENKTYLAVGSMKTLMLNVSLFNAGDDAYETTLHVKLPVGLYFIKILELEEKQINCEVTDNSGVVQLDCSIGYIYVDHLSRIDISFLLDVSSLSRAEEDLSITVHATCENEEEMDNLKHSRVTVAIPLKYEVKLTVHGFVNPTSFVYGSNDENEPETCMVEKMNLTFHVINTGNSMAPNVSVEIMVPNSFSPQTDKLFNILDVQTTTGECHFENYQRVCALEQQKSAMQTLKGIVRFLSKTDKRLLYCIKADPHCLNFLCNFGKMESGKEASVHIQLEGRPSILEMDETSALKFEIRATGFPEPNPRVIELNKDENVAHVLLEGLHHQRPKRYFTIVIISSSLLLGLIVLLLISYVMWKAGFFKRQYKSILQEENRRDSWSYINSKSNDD

Row | Compound | IC50 [1] [nM] | IC50 [2] [nM] | Bound [3] [%] | IC50 [4] [nM] | further results
1 | COc1cc(CN2CCCC2)cc(OC)c1-c1ccc(C[C@H](NC(=O)[C@]2(C)CCCN2S(=O)(=O)c2cc(Cl)cc(Cl)c2)C(=O)O)cc1 | 0.09 | 0.1 | 43 | 0.09 | –
2 | CSc1cnccc1C(=O)Nc1ccc(C[C@H](NC(=O)[C@]2(C)CCCN2S(=O)(=O)c2cc(Cl)cc(Cl)c2)C(=O)O)cc1 | 1.56 | 0.36 | 0 | 1.56 | –
3 | C[C@@]1(C(=O)N[C@@H](Cc2ccc(NC(=O)c3c(Cl)cccc3Cl)cc2)C(=O)O)CCCN1S(=O)(=O)c1cc(Cl)cc(Cl)c1 | 0.15 | 0.21 | 15 | 0.15 | –
4 | C[n+]1cc(Cl)c(C(=O)Nc2ccc(C[C@H](NC(=O)[C@]3(C)CCCN3S(=O)(=O)c3cc(Cl)cc(Cl)c3)C(=O)O)cc2)c(Cl)c1 | 0.1 | 0.19 | 61 | 0.1 | –
5 | O=C(Nc1ccc(C[C@H](NC(=O)[C@@H]2CCCN2S(=O)(=O)c2cccc(Cl)c2)C(=O)O)cc1)c1c(Cl)cncc1Cl | 0.1 | 0.09 | 37 | 0.1 | –
6 | C[C@@]1(C(=O)N[C@@H](Cc2ccc(NC(=O)c3cccnc3)cc2)C(=O)O)CCCN1S(=O)(=O)c1cc(Cl)cc(Cl)c1 | 0.25 | 0.27 | 12 | 0.25 | –
7 | O=C(Nc1ccc(C[C@H](NC(=O)[C@@H]2CCCN2S(=O)(=O)c2ccccc2)C(=O)O)cc1)c1c(Cl)cncc1Cl | 0.13 | 0.15 | 19 | 0.13 | –
8 | O=C(Nc1ccc(C[C@H](NC(=O)[C@@H]2CCCN2S(=O)(=O)c2cc(Cl)cc(Cl)c2)C(=O)O)cc1)c1c(Cl)cncc1Cl | 0.07 | 0.1 | 62 | 0.07 | –
9 | COc1ccnc(Cl)c1C(=O)Nc1ccc(C[C@H](NC(=O)[C@]2(C)CCCN2S(=O)(=O)c2cc(Cl)cc(Cl)c2)C(=O)O)cc1 | 0.08 | 0.13 | 40 | 0.08 | –

The next lines start with results.

Row | IC50 [1] [nM] | IC50 [2] [nM] | Bound [3] [%] | IC50 [4] [nM] | Compound | further results
10 | 0.31 | 0.16 | 0 | 0.31 | C[n+]1ccc(C(=O)Nc2ccc(C[C@H](NC(=O)[C@]3(C)CCCN3S(=O)(=O)c3cc(Cl)cc(Cl)c3)C(=O)O)cc2)c(Cl)c1 | –
11 | 0.08 | 0.1 | 61 | 0.08 | C[C@@]1(C(=O)N[C@@H](Cc2ccc(NC(=O)C3=C(Cl)CC(=O)N=C3Cl)cc2)C(=O)O)CCCN1S(=O)(=O)c1cc(Cl)cc(Cl)c1 | –
12 | 0.11 | 0.11 | 57 | 0.11 | C[C@@]1(C(=O)N[C@@H](Cc2ccc(NC(=O)c3c(Cl)ccnc3Cl)cc2)C(=O)O)CCCN1S(=O)(=O)c1cc(Cl)cc(Cl)c1 | Unbound plasma [5]: 2.2%; half-life [6]: 1.7 h; bioavailability [7]: 1.6%; Unbound plasma [8]: 0.2%; bioavailability [9]: 0.4%; Unbound plasma [10]: 0.15%; bioavailability [11]: 4%; clearance [12]: 32 mL/min/kg; half-life [13]: 2.3 h; half-life [14]: 0.73 h; clearance [15]: 7.5 mL/min/kg; clearance [16]: 1.9 mL/min/kg
13 | 0.09 | – | 1 | 0.09 | COc1cccc(OC)c1-c1ccc(C[C@H](NC(=O)[C@]2(C)CCCN2S(=O)(=O)c2cc(Cl)cc(Cl)c2)C(=O)O)cc1 | –
14 | 0.21 | 0.14 | 26 | 0.21 | C[C@@]1(C(=O)N[C@@H](Cc2ccc(NC(=O)c3cnccc3Cl)cc2)C(=O)O)CCCN1S(=O)(=O)c1cc(Cl)cc(Cl)c1 | –
